Cryo-EM structure data for 1 molecule are collected here from article PMC6722389, “Cryo-EM structure of the Ustilago maydis kinesin-5 motor domain bound to microtubules” (Journal of Structural Biology, 2019).

In one test the target is T1, UmKin5 (Mycosarcoma maydis, UniProt A0A0D1DQH0).
T1 construct: gene UMAG_10678; motor domain residues 73-456 without N-terminal extension; N-terminal His6 tag removed by TEV protease; E. coli BL21*(DE3); monomeric
Kind of test: cryo-EM structure. Particulars: microtubule-bound (bovine brain tubulin, paclitaxel); 5 mM AMPPNP, 1 mM MgCl2, pH 6.8; nucleotide binding site; overall resolution 4.3 Å, motor ~5-7 Å.

For another test, the target named is T2, N+UmKin5 (Mycosarcoma maydis, UniProt A0A0D1DQH0).
T2 construct: gene UMAG_10678; motor domain with 72-residue N-terminal extension, residues 1-456; N-terminal His6 tag removed by TEV protease; E. coli BL21*(DE3); monomeric
The test is described as follows: cryo-EM structure. Particulars: microtubule-bound (bovine brain tubulin, paclitaxel); 5 mM AMPPNP, 1 mM MgCl2, pH 6.8; nucleotide binding site; overall resolution 4.5 Å, motor ~5-7 Å.

Each structure is given as a SMILES string.

As to `Nc1ncnc2c1ncn2[C@@H]1O[C@H](COP(=O)(O)OP(=O)(O)NP(=O)(O)O)[C@@H](O)[C@H]1O` [AMPPNP], the cryo-EM structure entry on UmKin5 is “Strong density is visible at the nucleotide binding site consistent with the presence of AMPPNP”; at N+UmKin5, “Both constructs bound the MT lattice in the presence of the non-hydrolysable ATP analogue AMPPNP”.
